In PubChem BioAssay AID489035 (Sanford-Burnham Center for Chemical Genomics, 2010):
Activity calls are given as the source filed them. How the calls were made is not given here.

test system: Jurkat NF-kB reporter, TCR-induced, luciferase luminescence; assay: T-cell NF-kB luciferase reporter inhibition – Jurkat cells, luminescence, dose response (AID 489035)

**Q.** For `CC(=O)O[C@@]12CO[C@@H]1C[C@@H](O)[C@@]1(C)C(=O)[C@H](O)C3=C(C)[C@@H](OC(=O)[C@H](O)[C@@H](NC(=O)c4ccccc4)c4ccccc4)C[C@@](O)([C@@H](OC(=O)c4ccccc4)C12)C3(C)C` (some centres undefined), which IC50 is on record?
**A.** < 0.16 µM

**Q.** How did the IC50 turn out when `CCCCCCCCCCn1ccc(=N)cc1` was run?
**A.** 3.84 µM

**Q.** `CCCCCn1c2c(c(=N)c3ccccc31)CCC2` was tested. Which IC50 did it give?
**A.** > 80 µM (inactive)

**Q.** `COc1cc(C2c3cc4c(cc3CC3COC(=O)C32)OCO4)cc(OC)c1OC` (centres undefined) was tested. Which IC50 did it give?
**A.** > 80 µM (inactive)

**Q.** With `COC(=O)c1[nH]c2ccc(Br)cc2c1NC(=O)CN1CCN(C2CCCCC2)CC1` as the compound, how does the IC50 read?
**A.** 4.56 µM

**Q.** With `O=C(c1ccccc1)c1nn(-c2ccc(Cl)cc2)c(=O)cc1C(F)(F)F` as the compound, how does the IC50 read?
**A.** 1.25 µM

**Q.** How did the IC50 turn out when `COC(=O)C[C@]1(C(=O)OC)CN(C#N)N(c2ccc(Cl)cc2)C12c1ccccc1-c1ccccc12` was run?
**A.** 0.73 µM

**Q.** `Cc1ccc(NS(=O)(=O)c2ccc(C(=O)NC3CCN(Cc4ccccc4)CC3)cc2)cc1` was tested. Which IC50 did it give?
**A.** 19.8 µM

**Q.** For `CC(C)Cn1c(N)c(C(=O)CSc2ccc3c(c2)OCCO3)c(=O)n(C)c1=O`, which IC50 is on record?
**A.** < 0.16 µM

**Q.** For `Cn1c(SC2=CS(=O)(=O)c3ccccc32)nc2ccccc21`, which IC50 is on record?
**A.** 1.46 µM

**Q.** With `COc1ccc(NC(=O)/C(Cl)=C(/Cl)S(=O)Cc2ccc(Cl)cc2)cn1` (centres undefined) as the compound, how does the IC50 read?
**A.** 0.27 µM

**Q.** `CCc1cc(C(=O)NC2CCCc3c2cnn3-c2cccc(C)c2C)n(C)n1` (centres undefined) was tested. Which IC50 did it give?
**A.** > 80 µM (inactive)

**Q.** How did the IC50 turn out when `CCOCCOC(=O)c1[nH]c2c(c1C)C(=O)CC(c1cccs1)C2` (centres undefined) was run?
**A.** > 80 µM (inactive)

**Q.** `Cc1ccc(O)c(NC(=O)c2cc(-c3ccccc3)on2)c1` was tested. Which IC50 did it give?
**A.** > 80 µM (inactive)

**Q.** With `CC(=O)Nc1ccc(S(=O)(=O)N2CCCc3ccccc32)cc1` as the compound, how does the IC50 read?
**A.** > 80 µM (inactive)

**Q.** `O=C(Nc1ccc(S(=O)(=O)N2CCCCC2)cc1)c1ccc(CN2CCOCC2)cc1` was tested. Which IC50 did it give?
**A.** 16.6 µM

**Q.** With `CCn1nc(C)c(CNC(=O)c2ccc(OC3CCN(Cc4ccccn4)CC3)cc2)c1C` as the compound, how does the IC50 read?
**A.** > 80 µM (inactive)

**Q.** `CCOC(=O)c1[nH]c(C)c(C(=O)Nc2cc(Cl)ccc2C)c1C` was tested. Which IC50 did it give?
**A.** > 80 µM (inactive)

**Q.** `COc1ccc(OCC(=O)Nc2ccccc2N2CCCCC2)cc1` was tested. Which IC50 did it give?
**A.** > 80 µM (inactive)

**Q.** How did the IC50 turn out when `CCCCCc1ccc(OCCCC[n+]2ccc(C)cc2)c(CCCCC)c1` was run?
**A.** 8.23 µM

**Q.** `COC(=O)[C@]12OC[C@]34C([C@@H](O)[C@@H]1O)[C@]1(C)CC(=O)C(O)=C(C)[C@@H]1C[C@H]3OC(=O)[C@H](O)[C@@H]24` (some centres undefined) was tested. Which IC50 did it give?
**A.** < 0.16 µM

**Q.** With `O=C(Nc1nc(-c2ccccc2)cs1)c1ccc(N2CCOCC2)c([N+](=O)[O-])c1` as the compound, how does the IC50 read?
**A.** > 80 µM (inactive)

**Q.** How did the IC50 turn out when `Clc1ccc(CSc2nncn2-c2ccc3c(c2)OCCO3)cc1` was run?
**A.** > 80 µM (inactive)

**Q.** `CC[C@]1(O)CC2CN(CCc3c([nH]c4ccccc34)[C@@](C(=O)OC)(c3cc4c(cc3OC)N(C=O)[C@H]3[C@@](O)(C(=O)OC)[C@H](OC(C)=O)[C@]5(CC)C=CCN6CC[C@]43[C@@H]65)C2)C1` (some centres undefined) was tested. Which IC50 did it give?
**A.** > 80 µM (inactive)

**Q.** For `COc1ccc(COC(=O)c2cc([N+](=O)[O-])ccc2N2CCOCC2)cc1F`, which IC50 is on record?
**A.** > 80 µM (inactive)

**Q.** For `COc1ccc(CCNc2nnc(Sc3nnnn3-c3ccccc3)s2)cc1OC`, which IC50 is on record?
**A.** 10.6 µM

**Q.** For `CCn1c(C)cc(C(=O)CN2C(=O)c3ccccc3S2(=O)=O)c1C`, which IC50 is on record?
**A.** 1.68 µM

**Q.** With `O=C(N[C@@H](Cc1ccccc1)C(=O)CCl)OCc1ccccc1` as the compound, how does the IC50 read?
**A.** 0.54 µM

**Q.** For `COc1ccc(C2=NOC(C(=O)NCc3cccs3)C2)cc1OC` (centres undefined), which IC50 is on record?
**A.** > 80 µM (inactive)

**Q.** Which IC50 does the source give for `Cn1nc(-c2ccccn2)nc2c(=O)n(C)c(=O)nc1-2` here?
**A.** 12.4 µM

**Q.** How did the IC50 turn out when `Cc1ccc(N(C)S(=O)(=O)c2ccc(-c3cnc(C4CC4)o3)cc2)cc1` was run?
**A.** 44.6 µM (inactive)

**Q.** With `COc1cccc(/C=N/Nc2ncnc3scc(-c4ccccc4)c23)c1O` as the compound, how does the IC50 read?
**A.** 1.26 µM

**Q.** Which IC50 does the source give for `O=C(c1cc(-c2ccncc2)nc2c(Cl)cccc12)N1CCN(c2ccccc2F)CC1` here?
**A.** > 80 µM (inactive)

**Q.** Which IC50 does the source give for `CCOC(=O)C(C)Oc1cccc2c(=O)n(CC(=O)NCc3ccc(F)cc3)ccc12` (centres undefined) here?
**A.** > 80 µM (inactive)

**Q.** How did the IC50 turn out when `CCOc1ccc(NC(=O)c2cc3c(C)nc4ccccc4c3o2)cc1` was run?
**A.** > 80 µM (inactive)

**Q.** For `CCc1ccc(N2C(=O)C(Cl)=C(Nc3ccc(C(=O)N4CCCC4)cc3)C2=O)cc1`, which IC50 is on record?
**A.** 6.33 µM

**Q.** `Cc1cccc(N2CCN(C(=O)c3c(-c4ccccc4Cl)noc3C)CC2)c1C` was tested. Which IC50 did it give?
**A.** 78.6 µM (inactive)

**Q.** With `COc1ccc(C(=O)NNC(=O)c2ccccn2)cc1` as the compound, how does the IC50 read?
**A.** 1.93 µM

**Q.** With `COc1cc(C(=O)Nc2ccc3c(c2)ncn3C)cc(OC)c1OC` as the compound, how does the IC50 read?
**A.** > 80 µM (inactive)

**Q.** For `O=C(c1cn(Cc2ccccc2)nc1-c1ccccc1)N1CCN(c2ccccn2)CC1`, which IC50 is on record?
**A.** > 80 µM (inactive)

**Q.** How did the IC50 turn out when `Cc1cccc(N(C)S(=O)(=O)c2ccc(-c3cnc(C4CC4)o3)cc2)c1` was run?
**A.** 23.8 µM (inactive)

**Q.** With `CCCCCCCCCCn1c2c(c(=N)c3c1CCC3)CCC2` as the compound, how does the IC50 read?
**A.** 5.17 µM

**Q.** `Cc1ccc2oc(/N=C(\N)NC(=O)C(C)(C)C)nc2c1` was tested. Which IC50 did it give?
**A.** 6.68 µM

**Q.** Which IC50 does the source give for `CC(=O)O[C@H]1C(=O)[C@]2(C)[C@H]([C@H](OC(=O)c3ccccc3)[C@]3(O)C[C@H](OC(=O)[C@H](O)[C@@H](NC(=O)c4ccccc4)c4ccccc4)C(C)=C1C3(C)C)[C@]1(OC(C)=O)CO[C@@H]1C[C@@H]2O` here?
**A.** 0.51 µM

**Q.** `O=C(Nc1ccncc1)c1ccc(Cl)c(S(=O)(=O)N2CCc3ccccc32)c1` was tested. Which IC50 did it give?
**A.** > 80 µM (inactive)

**Q.** With `COc1ccc(NC(=O)/C(Cl)=C(/Cl)S(=O)Cc2ccccc2Cl)cn1` (centres undefined) as the compound, how does the IC50 read?
**A.** 0.64 µM

**Q.** Which IC50 does the source give for `O=c1cc(-c2cccc(F)c2)[nH]c2ccccc12` here?
**A.** > 80 µM (inactive)

**Q.** How did the IC50 turn out when `c1cc2c(cc1C1=NNC(=NC3CC3)SC1)OCCO2` was run?
**A.** 0.26 µM

**Q.** With `Cc1ccc(S(=O)(=O)NCc2ccncc2)cc1C` as the compound, how does the IC50 read?
**A.** > 80 µM (inactive)

**Q.** Which IC50 does the source give for `CCN(CC)c1ccc(/C=N/NC(=O)c2cccc(S(=O)(=O)Nc3ccccc3OC)c2)c(O)c1` here?
**A.** 3.37 µM

**Q.** How did the IC50 turn out when `C=C(C)COc1ccc(-c2[nH]ncc2-c2ccc(OC)c(OC)c2)c(O)c1` was run?
**A.** 13.6 µM

**Q.** How did the IC50 turn out when `COc1ccc2nc(C)cc(N/N=C/c3ccc(F)cc3)c2c1` was run?
**A.** 2.35 µM

**Q.** `COc1ccccc1CNS(=O)(=O)c1ccc(-c2cc(C)no2)cc1` was tested. Which IC50 did it give?
**A.** > 80 µM (inactive)

**Q.** For `C#Cc1ccc([C@@H]2C=C(C(=O)N3CCN(Cc4ccccc4)CC3)O[C@H](OCCCCO)C2)cc1`, which IC50 is on record?
**A.** > 80 µM (inactive)

**Q.** How did the IC50 turn out when `CN=c1scc(-c2cccs2)n1/N=C/c1ccccc1O` was run?
**A.** 2.09 µM

**Q.** How did the IC50 turn out when `COc1cc(Nc2ccc(C)cc2)c([N+](=O)[O-])nc1[N+](=O)[O-]` was run?
**A.** > 80 µM (inactive)

**Q.** `Cc1ccc(C(=O)O/N=C(\N)c2ccccn2)c(Cl)c1` was tested. Which IC50 did it give?
**A.** 1.11 µM

**Q.** Which IC50 does the source give for `Cc1oc2c(c1C(=O)NCc1cccnc1)C(=O)c1ccccc1C2=O` here?
**A.** 1.1 µM

**Q.** How did the IC50 turn out when `COc1ccc(CC(=O)Nc2cccc(-c3nnc(-c4cccc(C)c4)o3)c2)cc1OC` was run?
**A.** 47.6 µM (inactive)

**Q.** For `Cc1c(C(=O)OC2CCCC2)[nH]c2c1C(=O)CC(c1ccco1)C2` (centres undefined), which IC50 is on record?
**A.** > 80 µM (inactive)

**Q.** For `Cc1ccc(O)c(N=Nc2nccs2)c1`, which IC50 is on record?
**A.** 1.79 µM

**Q.** `Cc1ccc(S(=O)(=O)Nc2ccccc2-c2ccccc2)cc1` was tested. Which IC50 did it give?
**A.** 22.6 µM (inactive)

**Q.** How did the IC50 turn out when `O=C(Nc1ccc(S(=O)(=O)N2CCOCC2)cc1)c1ccc(CN2CCc3ccccc3C2)cc1` was run?
**A.** 12.7 µM

**Q.** For `O=S(=O)(Nc1cccc2ncccc12)c1cccs1`, which IC50 is on record?
**A.** 0.89 µM

**Q.** With `O=C(NCCc1ccccc1)c1ccc2c(c1)OCCO2` as the compound, how does the IC50 read?
**A.** 1.64 µM

**Q.** For `CCCOC(=O)c1[nH]c2c(c1C)C(=O)CC(c1cccs1)C2` (centres undefined), which IC50 is on record?
**A.** 32.1 µM (inactive)

**Q.** How did the IC50 turn out when `Cc1cc(C)nc(SCC(=O)Nc2ccnc3ccccc23)n1` was run?
**A.** > 80 µM (inactive)

**Q.** Which IC50 does the source give for `COC(=O)C1=C(CN2CCCc3ccccc32)NC(=O)NC1c1ccc(F)cc1` (centres undefined) here?
**A.** 1.01 µM

**Q.** `COc1cc([C@@H]2c3cc4c(cc3[C@H](O)[C@H]3COC(=O)[C@H]23)OCO4)cc(OC)c1OC` was tested. Which IC50 did it give?
**A.** > 80 µM (inactive)
